Measurements reported in patent US9211310B2, “Use of a Chinese medicine composition in preparing medicaments for treating secondary prevention of myocardial infarction” (TASLY PHARMACEUTICAL GROUP CO., LTD, priority 2010, dated 2015).

Test system: patients after acute myocardial infarction
Experiment: TCM symptom score, total and single (chest pain, chest tightness, short breath, fatigue, palpitation, spontaneous perspiration, pale complexion), same clinical trial
Format: in vivo, human
Parameters: total score of TCM symptom, Mean / total score of TCM symptom, Min / total score of TCM symptom, Max / total score of TCM symptom, Md / change of total score of TCM symptom, Mean / change of total score of TCM symptom, Max / change of total score of TCM symptom, Md: scale not given here
Details: FAS
Description: 3508 patients who were in accordance with the diagnostic standards of AMI for 28 days to 2 years and differentiated as Qi deficiency and blood stagnation syndrome by TCM were studied. 0.5 g Chinese medicine composition prepared by the method of EXAMPLE 1 (Coded as QSYQ) was administrated half an hour after meal, 3 times per day.
They included the overall survival time, angina pectoris score, TCM symptom score and life quality score, where angina pectoris score, TCM symptom score and life quality score were evaluated at randomization, in 1st, 3rd, 6th, 9th, 12th month after treatment and 18th month after follow-up.
The analysis method referred to the angina pectoris score.

[1] = 3 months after treatment-baseline
[2] = 6 months after treatment-baseline

For `CC(=O)Oc1ccccc1C(=O)O` [Control group, aspirine], the “total score of TCM symptom, Md” value (3 months after treatment) was 10.00, the “total score of TCM symptom, Mean” value (3 months after treatment) was 10.90 and the “total score of TCM symptom, Min” value (3 months after treatment) was 0.00. For the same compound, the “change of fatigue 0, % of patients” value [1] was “(64.74%)”, the “change of fatigue 0, number of patients” value [1] was 1107 and the “change of fatigue 2, % of patients” value [1] was “(24.56%)”. For the same compound, the “change of fatigue 2, number of patients” value [1] was 420, the “change of fatigue 4, % of patients” value [1] was “(4.09%)” and the “change of fatigue 4, number of patients” value [1] was 70. For the same compound, the “change of fatigue 6, % of patients” value [1] was “(0.94%)”, the “change of fatigue 6, number of patients” value [1] was 16 and the “change of fatigue −2, % of patients” value [1] was “(5.03%)”. For the same compound, the “change of fatigue −2, number of patients” value [1] was 86, the “change of fatigue −4, % of patients” value [1] was “(0.53%)” and the “change of fatigue −4, number of patients” value [1] was 9. The “change of fatigue −6, % of patients” value [1] was “(0.12%)”, the “change of fatigue −6, number of patients” value [1] was 2 and the “change of pale complexion 0, number of patients” value [1] was 1387. For the same compound, the “change of pale complexion 0, percent of patients” value [1] was “(81.21%)”, the “change of pale complexion 1, number of patients” value [1] was 259 and the “change of pale complexion 1, percent of patients” value [1] was “(15.16%)”. The “change of pale complexion −1, number of patients” value [1] was 62, the “change of pale complexion −1, percent of patients” value [1] was “(3.63%)” and the “change of palpitation 0, number of patients” value [1] was 1125. For the same compound, the “change of palpitation 0, percent of patients” value [1] was “(65.79%)”, the “change of palpitation 1, number of patients” value [1] was 415 and the “change of palpitation 1, percent of patients” value [1] was “(24.27%)”. The “change of palpitation 2, number of patients” value [1] was 43, the “change of palpitation 2, percent of patients” value [1] was “(2.51%)” and the “change of palpitation 3, number of patients” value [1] was 6. The “change of palpitation 3, percent of patients” value [1] was “(0.35%)”, the “change of palpitation −1, percent of patients” value [1] was “(6.96%)” and the “change of palpitation −2, number of patients” value [1] was 2. The “change of palpitation −2, percent of patients” value [1] was “(0.12%)”, the “change of palpitation −3, number of patients” value [1] was 0 and the “change of palpitation −3, percent of patients” value [1] was “(0.00%)”. For the same compound, the “change of short breath 0, % of patients” value [1] was “(71.29%)”, the “change of short breath 0, number of patients” value [1] was 1219 and the “change of short breath 2, % of patients” value [1] was “(20.47%)”. The “change of short breath 2, number of patients” value [1] was 350, the “change of short breath 4, % of patients” value [1] was “(2.16%)” and the “change of short breath 4, number of patients” value [1] was 37. For the same compound, the “change of short breath 6, % of patients” value [1] was “(0.53%)”, the “change of short breath 6, number of patients” value [1] was 9 and the “change of short breath −2, % of patients” value [1] was “(5.44%)”. The “change of short breath −2, number of patients” value [1] was 93, the “change of short breath −4, % of patients” value [1] was “(0.12%)” and the “change of short breath −4, number of patients” value [1] was 2. The “change of short breath −6, % of patients” value [1] was “(0.00%)”, the “change of short breath −6, number of patients” value [1] was 0 and the “change of spontaneous perspiration 0, number of patients” value [1] was 1083. For the same compound, the “change of spontaneous perspiration 0, percent of patients” value [1] was “(63.37%)”, the “change of spontaneous perspiration 1, number of patients” value [1] was 392 and the “change of spontaneous perspiration 1, percent of patients” value [1] was “(22.94%)”. For the same compound, the “change of spontaneous perspiration 2, number of patients” value [1] was 76, the “change of spontaneous perspiration 2, percent of patients” value [1] was “(4.45%)” and the “change of spontaneous perspiration 3, number of patients” value [1] was 20. For the same compound, the “change of spontaneous perspiration 3, percent of patients” value [1] was “(1.17%)”, the “change of spontaneous perspiration −1, percent of patients” value [1] was “(7.08%)” and the “change of spontaneous perspiration −2, number of patients” value [1] was 15. The “change of spontaneous perspiration −2, percent of patients” value [1] was “(0.88%)”, the “change of spontaneous perspiration −3, number of patients” value [1] was 2 and the “change of spontaneous perspiration −3, percent of patients” value [1] was “(0.12%)”. For the same compound, the “distribution of total score of TCM symptom: Medium, number of patients” value (6 months after treatment) was 418, the “distribution of total score of TCM symptom: Medium, percentage of patients” value (6 months after treatment) was “(26.79%)” and the “distribution of total score of TCM symptom: Mild, number of patients” value (6 months after treatment) was 1133. For the same compound, the “distribution of total score of TCM symptom: Mild, percentage of patients” value (6 months after treatment) was “(72.63%)”, the “distribution of total score of TCM symptom: Severe, number of patients” value (6 months after treatment) was 9 and the “distribution of total score of TCM symptom: Severe, percentage of patients” value (6 months after treatment) was “(0.58%)”. The “fatigue score 0, % of patients” value (6 months after treatment) was “(30.27%)”, the “fatigue score 0, number of patients” value (6 months after treatment) was 520 and the “fatigue score 2, % of patients” value (6 months after treatment) was “(61.00%)”. The “fatigue score 2, number of patients” value (6 months after treatment) was 1048, the “fatigue score 4, % of patients” value (6 months after treatment) was “(7.86%)” and the “fatigue score 4, number of patients” value (6 months after treatment) was 135. The “fatigue score 6, % of patients” value (6 months after treatment) was “(0.87%)”, the “fatigue score 6, number of patients” value (6 months after treatment) was 15 and the “pale complexion score 0, number of patients” value (6 months after treatment) was 871. For the same compound, the “pale complexion score 0, percent of patients” value (6 months after treatment) was “(50.70%)”, the “pale complexion score 1, number of patients” value (6 months after treatment) was 657 and the “pale complexion score 1, percent of patients” value (6 months after treatment) was “(38.24%)”. The “pale complexion score 2, number of patients” value (6 months after treatment) was 179, the “pale complexion score 2, percent of patients” value (6 months after treatment) was “(10.42%)” and the “pale complexion score 3, number of patients” value (6 months after treatment) was 11. For the same compound, the “pale complexion score 3, percent of patients” value (6 months after treatment) was “(0.64%)”, the “palpitation score 0, number of patients” value (6 months after treatment) was 538 and the “palpitation score 0, percent of patients” value (6 months after treatment) was “(31.32%)”. For the same compound, the “palpitation score 2, number of patients” value (6 months after treatment) was 906, the “palpitation score 2, percent of patients” value (6 months after treatment) was “(52.74%)” and the “palpitation score 4, number of patients” value (6 months after treatment) was 246. For the same compound, the “palpitation score 4, percent of patients” value (6 months after treatment) was “(14.32%)”, the “palpitation score 6, number of patients” value (6 months after treatment) was 28 and the “palpitation score 6, percent of patients” value (6 months after treatment) was “(1.63%)”. For the same compound, the “short breath score 0, % of patients” value (6 months after treatment) was “(25.03%)”, the “short breath score 0, number of patients” value (6 months after treatment) was 430 and the “short breath score 2, % of patients” value (6 months after treatment) was “(0.06%)”. The “short breath score 2, number of patients” value (6 months after treatment) was 1, the “short breath score 3, % of patients” value (6 months after treatment) was “(58.09%)” and the “short breath score 3, number of patients” value (6 months after treatment) was 998. The “short breath score 6, % of patients” value (6 months after treatment) was “(16.30%)”, the “short breath score 6, number of patients” value (6 months after treatment) was 280 and the “short breath score 9, % of patients” value (6 months after treatment) was “(0.52%)”. For the same compound, the “short breath score 9, number of patients” value (6 months after treatment) was 9, the “spontaneous perspiration score 0, number of patients” value (6 months after treatment) was 728 and the “spontaneous perspiration score 0, percent of patients” value (6 months after treatment) was “(42.37%)”. For the same compound, the “spontaneous perspiration score 1, number of patients” value (6 months after treatment) was 833, the “spontaneous perspiration score 1, percent of patients” value (6 months after treatment) was “(48.49%)” and the “spontaneous perspiration score 2, number of patients” value (6 months after treatment) was 144. For the same compound, the “spontaneous perspiration score 2, percent of patients” value (6 months after treatment) was “(8.38%)”, the “spontaneous perspiration score 3, number of patients” value (6 months after treatment) was 13 and the “spontaneous perspiration score 3, percent of patients” value (6 months after treatment) was “(0.76%)”. For the same compound, the “total score of TCM symptom, Max” value (6 months after treatment) was 34.00, the “total score of TCM symptom, Md” value (6 months after treatment) was 9.00 and the “total score of TCM symptom, Mean” value (6 months after treatment) was 10.04. The “total score of TCM symptom, Min” value (6 months after treatment) was 0.00, the “change of fatigue 0, % of patients” value [2] was “(56.96%)” and the “change of fatigue 0, number of patients” value [2] was 974. For the same compound, the “change of fatigue 2, % of patients” value [2] was “(28.54%)”, the “change of fatigue 2, number of patients” value [2] was 488 and the “change of fatigue 4, % of patients” value [2] was “(6.43%)”. The “change of fatigue 4, number of patients” value [2] was 110, the “change of fatigue 6, % of patients” value [2] was “(1.05%)” and the “change of fatigue 6, number of patients” value [2] was 18. For the same compound, the “change of fatigue −2, % of patients” value [2] was “(6.32%)”.
